The target in data set [1] is T1, mouse renin (Mus musculus, UniProt P06281).
T1 construct: Renin enzymatic activity from EDTA-aprotinin supplemented mouse plasma samples; from tissue
T1 sequence (P06281 72-402): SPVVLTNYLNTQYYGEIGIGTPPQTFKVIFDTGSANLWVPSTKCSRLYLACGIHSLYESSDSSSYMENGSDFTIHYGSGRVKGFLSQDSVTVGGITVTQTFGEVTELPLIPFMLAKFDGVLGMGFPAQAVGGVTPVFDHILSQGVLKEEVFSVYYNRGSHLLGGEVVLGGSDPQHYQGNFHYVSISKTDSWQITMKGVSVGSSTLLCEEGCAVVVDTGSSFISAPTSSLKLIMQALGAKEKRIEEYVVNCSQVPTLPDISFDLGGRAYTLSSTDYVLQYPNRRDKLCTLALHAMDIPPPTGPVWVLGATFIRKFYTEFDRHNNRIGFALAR
Put plainly: Plasma renin activity assay (FRET) in plasma of treated DCM mice. The conditions noted are these: DCM mice at 90 days, vs. untreated DCM control. It counts as in vivo. The protocol:
Plasma samples were aliquoted and stored at −80° C. until analysis.

Data set [2] deals with plasma aldosterone. The data set can be described thus: Enzyme immunoassay of plasma aldosterone in treated DCM mice. The conditions noted are these: DCM mice at 90 days, vs. untreated DCM control. It counts as in vivo, mouse. The source says: (§1) Mice: Dilated cardiomyopathy (DCM) is a major cause of HF, which is associated with pathological dilation of the heart ventricles and declines in heart contractile or systolic function. A well-established, translational mouse model of DCM with reduced ejection fraction (rEF) fulfills the criteria of the American Heart Association Scientific Statement for Animal Models of Heart Failure was utilized in the examples below. The mice used for this study were randomly assigned female littermates with or without (DCM on a C57BL/6 background. DCM mice express a transgene dominant-negative CREB transcription factor specific to cardiomyocytes and consistently develop the progressive stages (A-D) of HF similar to those described for humans. In female mice with DCM renal function remains within a normal range up to the terminal HF stage, as measured by plasma BUN and creatinine. DCM+vehicle (n=28) and DCM+DRI (n=29) were compared to each other. A group of congenic WT mice (n=20) was used for reference. In sub-groups of 90-day old mice (n=8/group), terminal blood was collected via cardiocentesis with ethylenediaminetetraacetic acid (EDTA)-aprotinin syringes to prevent proteolysis of targeted proteins and dissected organs were weighed. […] All analysis and health/death reports were recorded by investigators and animal facility technicians who were blinded to the mouse genotype. […]

Data set [3] concerns female mice with dilated cardiomyopathy (DCM). Put plainly: Kaplan-Meier survival of female mice with DCM. It counts as in vivo, mouse. The text has this: (§2) Mice: Dilated cardiomyopathy (DCM) is a major cause of HF, which is associated with pathological dilation of the heart ventricles and declines in heart contractile or systolic function. A well-established, translational mouse model of DCM with reduced ejection fraction (rEF) fulfills the criteria of the American Heart Association Scientific Statement for Animal Models of Heart Failure was utilized in the examples below. The mice used for this study were randomly assigned female littermates with or without (DCM on a C57BL/6 background. DCM mice express a transgene dominant-negative CREB transcription factor specific to cardiomyocytes and consistently develop the progressive stages (A-D) of HF similar to those described for humans. In female mice with DCM renal function remains within a normal range up to the terminal HF stage, as measured by plasma BUN and creatinine. DCM+vehicle (n=28) and DCM+DRI (n=29) were compared to each other. A group of congenic WT mice (n=20) was used for reference. In sub-groups of 90-day old mice (n=8/group), terminal blood was collected via cardiocentesis with ethylenediaminetetraacetic acid (EDTA)-aprotinin syringes to prevent proteolysis of targeted proteins and dissected organs were weighed. The blood samples were centrifuged at 3000 rpm for 20 min at 4° C. Plasma samples were aliquoted and stored at −80° C. until analysis. All analysis and health/death reports were recorded by investigators and animal facility technicians who were blinded to the mouse genotype.
(§3) Aliskiren water was provided ad libitum throughout life.
Statistical Analysis: Statistical analyses were performed with GraphPad Prism 7.04 software (GraphPad Software, La Jolla, Calif., USA) using Student's t-test, one-way ANOVA, or two-way ANOVA with Tukey's multiple comparisons test (unless otherwise indicated) and Pearson's correlation. Survival was analyzed using Kaplan-Meier curves with the Mantel-Cox test. Differences were considered significant if p≤0.05. Data are represented as mean±SE.

Data set [4] shares this test system. The data set can be described thus: Echocardiography at 90 days in DCM mice. In kind it is in vivo, mouse. The conditions noted are these: 90 days of age.
Data set [5] shares this test system. Put plainly: Morphometric changes (heart and lung weight to body weight) at 90 days. In kind it is in vivo, mouse. The conditions noted are these: 90 days of age.
Excerpt: as §1

For data set [6] the test system is unchanged. The data set can be described thus: Body composition by quantitative magnetic resonance (QMR, EchoMRI). It counts as in vivo, mouse.
Excerpt: as §2, §3
Body Composition: Body composition was objectively quantified by a single-blinded and experienced operator. Bodyweight, free water (systemic extracellular water, ECW), total water, body fat, and lean mass were recorded longitudinally. Mice were measured every tenth day between 50-100 days using quantitative magnetic resonance (QMR) technology with an EchoMRI™ 4-in-1 Analyzer (Echo Medical Systems, Houston, Tex., USA). The machine was calibrated daily per standard operating procedure using the provided canola oil (54.3 g) phantom. Briefly, mice were weighed (Scout Pro SP401, Ohaus Corporation, Pine Brook, N.J., USA) and loaded into a tube restrainer specific to the system. Mice were fully conscious and minimally restrained throughout each 60-90 s recording and were returned to their home enclosure following measurement.

The conditions of data set [7]: 100 mg/kg/day orally via drinking water, throughout the treatment period.
Protocol: Dose calculations were based on an average consumption of 5 mL of water/day/mouse. […] The oral dose was chosen to closely mimic the human route of delivery, while not altering the blood pressure, associated with elevated plasma Ang II-aldosterone levels, given the low bioavailability of the drug in rodents. […] The administration was started at 50 days of age to coincide with the previously identified timeline of increased renin activity and development of stage B HF in female DCM mice]. […] All untreated mice (WT and DCM+vehicle) received ad lib 3 ppm hyperchlorinated facility water via an automated watering system (Edstrom, Waterford, Wis., USA).
The conditions of data set [8]: humans; cited from earlier work.

Here are results for one molecule from patent US20210263120A1, “METHOD OF PERSONALIZED TREATMENT FOR CARDIOMYOPATHY AND HEART FAILURE AND ASSOCIATED DISEASES BY MEASURING EDEMA AND CACHEXIA/SARCOPENIA” (priority 2018, published 2021).

As for `COCCCOc1cc(C[C@@H](C[C@H](N)[C@@H](O)C[C@H](C(=O)NCC(C)(C)C(N)=O)C(C)C)C(C)C)ccc1OC` [aliskiren, aliskiren hemifumarate], the plasma renin activity result in data set [1] is given as “significantly reduced elevated plasma renin activity to normal levels”. Moreover, the plasma aldosterone levels entry in data set [2] is reported as “not modulated by treatment”. The “survival gain expressed as human years” value in data set [3] (assuming an 80-year lifespan) is listed as 5.6 human years. This molecule had a median survival in data set [3] (female DCM mice, 100 mg/kg/day from 50 days of age, control 103 days) of 110 days. In addition, in data set [3] (female DCM mice, median survival +DRI vs. control), the “increase in survival vs. control DCM mice” value is 7%. Besides, in data set [4], the “absolute increase in EF vs. DCM+vehicle” value turned out to be 5%. For the same molecule, the heart rate in data set [4] (anesthetized, control 419±10) is recorded as 469±14 bpm. Besides, in data set [4] (vs. DCM control), the “cardiac output (CO; mL/min)” value is recorded as “improved”, the “ejection fraction (EF %)” value is given as “improved” and the “fractional shortening (FS %)” value is listed as “improved”. Moreover, the “reduction of the gross increase in cardiac weight of control (DCM+vehicle) mice” value in data set [5] amounted to 20.4%. Also, the “systemic extracellular water (ECW)” value in data set [6] (100 days of age, QMR) was “significantly higher in DCM+vehicle vs. DCM+DRI mice”. Besides, in data set [6] (100 days, QMR), the “combined fat and lean mass (wasting/cachexia)” value was “combined losses of fat and lean mass in DCM control mice by 100 days relative to WT (p<0.0001) and DCM+DRI mice”; the lean body mass entry was “significant decline in lean body mass in DCM control mice at 100 days, consistent with sarcopenia, by comparison to DCM+DRI and WT mice”. Besides, the “development of Stage C HF / ECW accumulation (edema)” value in data set [6] (DCM+DRI vs. DCM+vehicle) is recorded as “delayed development of Stage C HF”. For the same molecule, the body weights entry in data set [6] (at 90 days) is listed as “not significantly different between groups”. Also, the body weights result in data set [6] (at 100 days) was “weights appeared to decline in DCM+vehicle controls compared to WT and DCM+DRI mice”. Moreover, the body fat entry in data set [6] (through 100 days, QMR) was “maintenance of fat levels similar to WT through 100 days”. Besides, the “side effects or abnormal clinical observations” value in data set [7] was “no side effects or abnormal clinical observations”. Moreover, the bioavailability result in data set [8] was “low”.
